pEC50: −log10 of the molar value. Entries after “also recorded” stand apart in the source; their conditions may differ. Structures can show the parent of a compound that is named as a salt. Where two headings read alike, the source gives them in different places.
Experiments:
[1] = XTT cell proliferation in A549 cells; type: cell-based, human; conditions: human, highest concentration used 50.00 µM, sentence also cites [17]
[2] = tested on: ZIKV Paraiba/2015; assay: Viral inhibition assay, post-infection treatment, Vero cells; type: cell-based, Zika virus; conditions: for pEC50: ZIKV Paraiba/2015, Vero cells, post-infection treatment, 36 h; for MIC: read-out: Post-treatment MIC (maximum effective concentration)
[3] = tested on: ZIKV MR-766 strain; assay: Viral inhibition assay, post-treatment, old World strain, Vero cells; type: cell-based, Zika virus; conditions: for pEC50: old World ZIKV MR-766, Vero cells, post-treatment; for MIC: old World ZIKV MR-766 strain, read-out: MR766 MIC (maximum effective concentration)
[4] = tested on: ZIKV Paraiba/2015; assay: Viral inhibition assay, post-treatment, human A549 cells; type: cell-based, Zika virus; conditions: for inhibitor category based on SI-MTT and SI-XTT: Paraiba/2015, A549 cells; for MIC: in Homo sapiens, read-out: A549 cells MIC (maximum effective concentration); for pEC50: ZIKV Paraiba/2015, A549 cells, post-treatment, 36 h
[5] = tested on: ZIKV Paraiba/2015; assay: Growth kinetics inhibition assay (infectious viral progeny), Vero cells; type: cell-based, Zika virus
[6] = XTT cell proliferation assay in Vero cells; type: cell-based, African green monkey; conditions: African green monkey, confluent monolayers; non-infected Vero cells, 36 h post-treatment
[7] = tested on: ZIKV Paraiba/2015; assay: Viral inhibition assay, co-treatment, Vero cells; type: cell-based, Zika virus; conditions: for Co-treatment MIC (maximum effective concentration): Vero cells, ZIKV Paraiba/2015, co-treatment; for inhibitor category based on SI-MTT / inhibitor category based on SI-MTT and SI-XTT / inhibitor category based on SI-XTT: co-treatment, Paraiba/2015, Vero
[8] = tested on: ZIKV-MEX-2-81; conditions: ZIKV MEX-2-81, U2OS cells; cited from earlier work
[9] = tested on: ZIKV MEX_I_7 strain; conditions: ZIKV MEX_I_7, Huh7, HeLa and HAEC cells; cited from earlier work
[10] = tested on: ZIKV PRVABC59 strain; assay: Viral inhibition assay, post-treatment, new World strain, Vero cells; type: cell-based, Zika virus; conditions: for pEC50: new World ZIKV PRVABC59, Vero cells, post-treatment, 48 h; for MIC: read-out: PRVABC59 MIC (maximum effective concentration)
[11] = tested on: ZIKV Paraiba/2015; assay: Viral inhibition assay, pre-treatment (prophylactic), Vero cells; type: cell-based, Zika virus; conditions: for MIC: read-out: Pre-treatment MIC (maximum effective concentration); for pEC50: ZIKV Paraiba/2015, Vero cells, pre-treatment 12 h before infection
[12] = tested on: ZIKV SL1602 strain; conditions: ZIKV SL1602, Vero cells; cited from earlier work
[13] = tested on: ZIKV cocktail of MR-766, FSS13025, and MEX-2-81 strains; conditions: JEG-3 and HBME cells; cited from earlier work
[14] = tested on: ZIKV MR-766; conditions: ZIKV MR-766, Vero cells; cited from earlier work
[15] = MTT cell viability in A549 cells; type: cell-based, human; conditions: human, highest concentration used 50.00 µM, sentence also cites [17]
[16] = tested on: ZIKV PRVABC59; conditions: ZIKV PRVABC59, Vero cells; cited from earlier work
[17] = MTT cell viability assay in Vero cells; type: cell-based, African green monkey; conditions: African green monkey, confluent monolayers; non-infected Vero cells, 36 h post-treatment
[18] = tested on: ZIKV FB-GWUH-2016; design: method as in ref 27 = [27]; conditions: ZIKV FB-GWUH-2016, RPE cells; cited from earlier work
[19] = tested on: ZIKV cocktail of MR-766, FSS13025, and MEX-2-81; conditions: JEG-3 cells, ZIKV cocktail of MR-766, FSS13025, MEX-2-81; cited from earlier work
[20] = tested on: A549 cells; assay: XTT cell proliferation in A549 cells; type: cell-based, human; conditions: highest concentration used 50.00 µM, sentence also cites [17]
[21] = tested on: Vero cells; assay: XTT cell proliferation assay in Vero cells; type: cell-based, African green monkey; conditions: non-infected Vero cells, 36 h post-treatment
[22] = tested on: A549 cells; assay: MTT cell viability in A549 cells; type: cell-based, human; conditions: highest concentration used 50.00 µM, sentence also cites [17]
[23] = tested on: Vero cells; assay: MTT cell viability assay in Vero cells; type: cell-based, African green monkey; conditions: non-infected Vero cells, 36 h post-treatment
[24] = tested on: ZIKV MR-766; conditions: ZIKV MR-766, Vero cells, pre-treatment conditions; cited from earlier work
[25] = tested on: ZIKV KX197192.1 strain; design: method as in ref 32, 34 = [32]; conditions: Huh7 cells; cited from earlier work
[26] = tested on: ZIKV DAKAR B11514; design: method as in ref 32, 34 = [32]; conditions: ZIKV DAKAR B11514, Vero cells; cited from earlier work
[27] = post-treatment, Paraiba/2015, Vero
[28] = 0.1, 1, 10 EC50, all time points (24, 48, 72 h post-treatment), MOI 0.1
[29] = Zika virus, new World ZIKV PRVABC59
[30] = pre-treatment, Paraiba/2015, Vero

Compound | CC50 [1] | pEC50 [2] | pEC50 ([2]; Zika virus, Vero) | MIC ([2]; Zika virus) | inhibitor category based on SI-MTT and SI-XTT [2, 27] | inhibitor category based on SI-MTT and SI-XTT ([3]; ZIKV MR-766, Vero) | pEC50 ([3]; Zika virus) | MIC ([3]; Zika virus) | inhibitor category based on SI-MTT and SI-XTT [4] | MIC ([4]; Zika virus) | pEC50 ([4]; Zika virus) | CC50 at 36 h [6] | Co-treatment MIC (maximum effective concentration) [7] | inhibitor category based on SI-MTT [7] | inhibitor category based on SI-MTT and SI-XTT [7] | inhibitor category based on SI-MTT and SI-XTT ([10]; ZIKV PRVABC59, Vero) | pEC50 ([10]; Zika virus) | MIC [10, 29] | MIC ([11]; Zika virus) | pEC50 ([11]; Zika virus) | also measured
COc1c(C)c2c(c(O)c1C/C=C(\C)CCC(=O)O)C(=O)OC2 [Mycophenolic acid] | > 50 µM | 5.37 | 5.36 | > 100 µM | moderate to weak | most potent; also recorded: potent | 6.82 | < 1.23 µM | weak | < 11.1 µM | 6.19 | > 1350 µM | < 11.10 µM | weak | weak | potent | 6.66 | < 1.23 µM | > 100 µM | 5.12 | effect on production of infectious viral progeny (viral titers) [5, 28]: dose-dependent inhibitory effect; pEC50 [8]: 6.40; pEC50 [9]: > 5.70; inhibitor category based on SI-MTT [11, 30]: Potent; also recorded: moderate; inhibitor category based on SI-XTT [11, 30]: potent; pEC50 [12]: 6.38; pEC50 [13]: 7.00; pEC50 [14]: 6.96; CC50 [15]: > 50 µM; pEC50 [16]: 6.85; CC50 at 36 h [17]: 275 µM
COC1=CC(c2cc3ccccc3[nH]2)=N/C1=C\c1[nH]c(C)cc1C [Obatoclax, Obatoclax mesylate] | > 50 µM | 6.20 | 6.24 | < 0.01 µM | moderate to weak | – | 6.43 | < 1.23 µM | weak | < 1.23 µM | 6.19 | 60.4 µM | < 3.70 µM | Potent | – | – | 6.39 | < 1.23 µM | < 11.1 µM | 5.53 | inhibitor category based on SI-MTT [2, 27]: weak; inhibitor category based on SI-XTT [2, 27]: potent; pEC50 [18]: 7.40; inhibitor category based on SI-MTT ([3]; ZIKV MR-766, Vero): weak; inhibitor category based on SI-XTT ([3]; ZIKV MR-766, Vero): moderate; effect on production of infectious viral progeny (viral titers) ([5]; 1 EC50, all the analyzed times, may be caused by toxicity): Complete inhibition; inhibitor category based on SI-XTT [7]: potent; inhibitor category based on SI-MTT ([10]; ZIKV PRVABC59, Vero): weak; inhibitor category based on SI-XTT ([10]; ZIKV PRVABC59, Vero): potent; inhibitor category based on SI-MTT [11, 30]: moderate; CC50 [15]: > 50 µM; inhibitory activity [19]: did not exhibit inhibitory activity; CC50 at 36 h [17]: 17.6 µM
2′,3′,5′-Triacetyl-6-azauridine [Azaribine] | – | – | – | – | most potent; also recorded: potent | weak | – | – | weak | – | – | – | > 100.00 µM | Potent | potent | moderate | – | – | – | – | CC50 [20]: > 50 µM; Post-treatment MIC (maximum effective concentration) ([2]; Vero cells, ZIKV Paraiba/2015, post-treatment): > 100.00 µM; pEC50 ([2]; read-out: EC50): 5.79; pEC50 [3]: 5.61; MIC [3]: < 11.10 µM; A549 cells MIC (maximum effective concentration) ([4]; A549 cells): < 11.10 µM; pEC50 [4]: 6.17; effect on production of infectious viral progeny (viral titers) ([5]; 24 h post-treatment and at 10 EC50 at 48 and 72 h post-treatment): significant effect; CC50 [21]: > 1350 µM; pEC50 ([7]; ZIKV Paraiba/2015, Vero cells, co-treatment (virus pre-incubated with compound 1 h), read-out: EC50): 5.59; inhibitor category based on SI-XTT [7]: potent; PRVABC59 MIC (maximum effective concentration) ([10]; new World ZIKV PRVABC59): < 11.10 µM; pEC50 [10]: 5.95; Pre-treatment MIC (maximum effective concentration) ([11]; Vero cells, ZIKV Paraiba/2015, pre-treatment): > 100.00 µM; pEC50 [11]: 4.33; inhibitor category based on SI-MTT [11, 30]: moderate; inhibitor category based on SI-XTT [11, 30]: weakest and weak; CC50 [22]: > 50 µM; CC50 [23]: 237 µM
Cc1c(-c2ccc(-c3ccccc3F)cc2)nc2ccc(F)cc2c1C(=O)O [Brequinar, Brequinar sodium salt hydrate] | > 50 µM | 5.82 | 5.99 | > 100 µM | most potent; also recorded: potent | most potent; also recorded: potent | 7.30 | < 0.13 µM | Potent | < 0.04 µM | 7.70 | > 1350 µM | < 33.30 µM | – | moderate | potent | 7.10 | < 0.41 µM | > 100 µM | 4.37 | effect on production of infectious viral progeny (viral titers) [5, 28]: dose-dependent inhibitory effect; effect on production of infectious viral progeny (viral titers) ([5]; 10 EC50, 24 and 48 h post-treatment): Complete inhibition; inhibitor category based on SI-MTT [11, 30]: moderate; inhibitor category based on SI-XTT [11, 30]: weakest and weak; pEC50 [14]: 7.10; CC50 [15]: > 50 µM; pEC50 [24]: 6.52; CC50 at 36 h [17]: 238 µM
O=c1cnn([C@@H]2O[C@H](CO)[C@@H](O)[C@H]2O)c(=O)[nH]1 [Azauridine, 6-azauridine] | > 50 µM | 5.37 | 5.43 | > 100 µM | moderate to weak | moderate | 6.12 | < 3.7 µM | moderate | < 1.23 µM | 6.36 | > 1350 µM | < 100.00 µM | weak | weak | moderate | 5.84 | < 11.1 µM | > 100 µM | 4.19 | effect on production of infectious viral progeny (viral titers) [5, 28]: dose-dependent inhibitory effect; pEC50 [25]: 5.64; inhibitor category based on SI-MTT and SI-XTT [11, 30]: weak; inhibitor category based on SI-XTT [11, 30]: weakest; pEC50 [14]: 6.01; CC50 [15]: > 50 µM; pEC50 [16]: 6.21; pEC50 [26]: 5.82; CC50 at 36 h [17]: 156 µM
